From EP0511816B1, “Neurotrophic peptide derivative” (SUMITOMO PHARMACEUTICALS COMPANY, LIMITED, priority 1991, dated 1999)
Ends that are not written are not given here. Peptide text beside a SMILES is read from it.

Experiments:
[1] = tested on: tissue of medial septum nuclei; conditions: rat medial septum nuclei acetylcholinergic neuron; Reference 1; cited from earlier work
[2] = tested on: tissue of medial septum nuclei; test: neurotrophic activity: acceleration of acetylcholine synthesis in medial septum nuclei tissue (method of Ojika et al.); format: cell-based; conditions: qualitative statement, compared with rat-derived HCNP; no figures given
Excerpt: The neurotrophic activity (also called neurotrophic factor activity) refers to, for example, an action of regulating differentiation and maturation of neuronal cells, namely, an action of accelerating the acetylcholine synthesis in the tissue of medial septum nuclei which is rich in cholinergic neurons.
The human-derived neurotrophic peptide or its derivatives of the present invention can regulate differentiation and maturation of neuronal cells. That is, the neurotrophic peptide and derivatives thereof accelerate the acetylcholine synthesis in the tissue of medial septum nuclei. The biological activity can be determined by the method of Ojika, K., et al. (Reference 66).

## AADISQWAGPL [HCNP, Hippocampal cholinergic neurotrophic peptide of 11 amino acid residues isolated from hippocampal tissue of neonatal rat by Ojika et al]
[1]
  production of acetylcholine: enhances production of acetylcholine

## CC(C)C[C@H](NC(=O)[C@@H]1CCCN1C(=O)CNC(=O)[C@H](CO)NC(=O)[C@H](Cc1c[nH]c2ccccc12)NC(=O)[C@H](CCCCN)NC(=O)[C@H](CO)NC(=O)[C@H](CC(C)C)NC(=O)[C@H](CC(=O)O)NC(=O)[C@@H](NC(=O)[C@@H]1CCCN1)C(C)C)C(=O)O [hHCNP] (H-PVDLSKWSGPL-OH)
[2]
  neurotrophic activity: neurotrophic activity similar to rat-derived HCNP was noted
